# Test results taken from patent publication US4684664A, “Derivatives of β-(4-isocyano-1,2,3,4-diepoxycyclopentyl) acrylic acid” (Kureha Kagaku Kogyo Kabushiki Kaisha, priority 1984, dated 1987).
# Key:
# Assay type in all cases: cell-based
# [1] = system: Bacillus subtilis ATCC 6633; assay: Antibacterial activity, agar-dilution MIC, organism No. 14; details: Bacillus subtilis, ATCC6633, read-out: Minimum Inhibitory Concentration
# Procedure, shortened: (§1)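 Minimum inhibitory concentration determined on solid bouillon agar by the agar-dilution technique, with values stated as μg/ml.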
# [2] = system: Streptococcus faecium IFO 3826; assay: Antibacterial activity, agar-dilution MIC, organism No. 27; details: Enterococcus faecium, IFO3826, read-out: Minimum Inhibitory Concentration
# Procedure, shortened: as §1
# [3] = system: Salmonella typhimurium IID 971; assay: Antibacterial activity, agar-dilution MIC, organism No. 8; details: Salmonella enterica, read-out: Minimum Inhibitory Concentration
# Procedure, shortened: as §1
# [4] = system: Salmonella shottmuelleri 8006; assay: Antibacterial activity, agar-dilution MIC, organism No. 11; details: Salmonella, 8006, read-out: Minimum Inhibitory Concentration
# Procedure, shortened: as §1
# [5] = system: Pseudomonas aeruginosa IFO 3445; assay: Antibacterial activity, agar-dilution MIC, organism No. 15; details: Pseudomonas aeruginosa, IFO3445, read-out: Minimum Inhibitory Concentration
# Procedure, shortened: as §1
# [6] = system: Proteus rettgeri IFO 3850; assay: Antibacterial activity, agar-dilution MIC, organism No. 22; details: Providencia rettgeri, IFO3850, read-out: Minimum Inhibitory Concentration
# Procedure, shortened: as §1
# [7] = system: Salmonella paratyphi-A 1015; assay: Antibacterial activity, agar-dilution MIC, organism No. 10; details: Salmonella enterica, PARATYPHI, read-out: Minimum Inhibitory Concentration
# Procedure, shortened: as §1
# [8] = system: Serratia marcescens IAM 1184; assay: Antibacterial activity, agar-dilution MIC, organism No. 13; details: Serratia marcescens, IAM1184, read-out: Minimum Inhibitory Concentration
# Excerpt: Agar-dilution method was used for determination of the antibacterial activity and antifungal activity while using bouillon-agar culture medium, and the minimum inhibitory concentration of the specimen was expressed by μg/ml of the culture medium.
# [9] = system: Candida albicans IAM 4905; assay: Antifungal activity, agar-dilution MIC, organism No. 29; details: Candida albicans, IAM4905, read-out: Minimum Inhibitory Concentration
# Procedure, shortened: as §1
# Proteus vulgaris HX-19 = assay: Antibacterial activity, agar-dilution MIC, organism No. 21; details: Proteus vulgaris, HX19, read-out: Minimum Inhibitory Concentration
# Procedure, shortened: as §1
# [10] = system: Aspergillus niger IFO 6342; assay: Antifungal activity, agar-dilution MIC, organism No. 30; details: Aspergillus niger, IFO6342, read-out: Minimum Inhibitory Concentration
# Procedure, shortened: as §1
# [11] = system: Proteus morganii IFO 3848; assay: Antibacterial activity, agar-dilution MIC, organism No. 18; details: Morganella morganii, IFO3848, read-out: Minimum Inhibitory Concentration
# Procedure, shortened: as §1
# [12] = system: Klebsiella pneumoniae PCI-602; assay: Antibacterial activity, agar-dilution MIC, organism No. 7; details: Klebsiella pneumoniae, PCI602, read-out: Minimum Inhibitory Concentration
# Procedure, shortened: as §1
# [13] = system: Proteus mirabilis IFO 3849; assay: Antibacterial activity, agar-dilution MIC, organism No. 19; details: Proteus mirabilis, IFO3849, read-out: Minimum Inhibitory Concentration
# Procedure, shortened: as §1
# [14] = system: Staphylococcus aureus FDA 209PJc-1; assay: Antibacterial activity, agar-dilution MIC, organism No. 1; details: Staphylococcus aureus, FDA209PJC1, read-out: Minimum Inhibitory Concentration
# Procedure, shortened: as §1
# [15] = system: Pseudomonas aeruginosa NCTC 10490; assay: Antibacterial activity, agar-dilution MIC, organism No. 16; details: Pseudomonas aeruginosa, NCTC10490, read-out: Minimum Inhibitory Concentration
# Procedure, shortened: as §1
# [16] = system: Salmonella enteritidis G 14; assay: Antibacterial activity, agar-dilution MIC, organism No. 12; details: Salmonella enterica, ENTERITIDIS, read-out: Minimum Inhibitory Concentration
# Procedure, shortened: as §1
# [17] = system: Streptococcus pyogenes Cook; assay: Antibacterial activity, agar-dilution MIC, organism No. 4; details: Streptococcus pyogenes, read-out: Minimum Inhibitory Concentration
# Procedure, shortened: as §1
# Proteus vulgaris OX-19 = assay: Antibacterial activity, agar-dilution MIC, organism No. 20; details: Proteus vulgaris, OX19, read-out: Minimum Inhibitory Concentration
# Procedure, shortened: as §1
# [18] = system: Escherichia coli K12 C600 IAM 1264; assay: Antibacterial activity, agar-dilution MIC, organism No. 6; details: Escherichia coli, IAM1264, read-out: Minimum Inhibitory Concentration
# Procedure, shortened: as §1
# [19] = system: Micrococcus luteus ATCC 9341; assay: Antibacterial activity, agar-dilution MIC, organism No. 25; details: Micrococcus luteus, ATCC9341, read-out: Minimum Inhibitory Concentration
# Procedure, shortened: as §1
# [20] = system: Enterobacter aerogenes ATCC 13048; assay: Antibacterial activity, agar-dilution MIC, organism No. 23; details: Klebsiella aerogenes, ATCC13048, read-out: Minimum Inhibitory Concentration
# Procedure, shortened: as §1
# Salmonella typhi 901 = assay: Antibacterial activity, agar-dilution MIC, organism No. 9; details: Salmonella enterica, TYPHI, read-out: Minimum Inhibitory Concentration
# Procedure, shortened: as §1
# Enterobacter cloacae 963 = assay: Antibacterial activity, agar-dilution MIC, organism No. 24; details: Enterobacter cloacae, 963, read-out: Minimum Inhibitory Concentration
# Procedure, shortened: as §1
# [21] = system: Staphylococcus aureus Terajima; assay: Antibacterial activity, agar-dilution MIC, organism No. 2; details: Staphylococcus aureus, read-out: Minimum Inhibitory Concentration
# Procedure, shortened: as §1
# [22] = system: Staphylococcus aureus MS 353; assay: Antibacterial activity, agar-dilution MIC, organism No. 3; details: Staphylococcus aureus, MS353, read-out: Minimum Inhibitory Concentration
# Procedure, shortened: as §1
# [23] = system: Escherichia coli NIHJ-JC-2; assay: Antibacterial activity, agar-dilution MIC, organism No. 5; details: Escherichia coli, NIHJJC2, read-out: Minimum Inhibitory Concentration
# Procedure, shortened: as §1
# [24] = system: Pseudomonas aeruginosa PAO 1; assay: Antibacterial activity, agar-dilution MIC, organism No. 17; details: Pseudomonas aeruginosa, PAO1, read-out: Minimum Inhibitory Concentration
# Procedure, shortened: as §1
# [25] = system: Streptococcus pyogenes IFO 3340; assay: Antibacterial activity, agar-dilution MIC, organism No. 26; details: Streptococcus pyogenes, IFO3340, read-out: Minimum Inhibitory Concentration
# Procedure, shortened: as §1
SMILES,MIC [1] [µg/mL],MIC [2] [µg/mL],MIC [3] [µg/mL],MIC [4] [µg/mL],MIC [5] [µg/mL],MIC [6] [µg/mL],MIC [7] [µg/mL],MIC [8] [µg/mL],MIC [9] [µg/mL],MIC (Proteus vulgaris HX-19) [µg/mL],MIC [10] [µg/mL],MIC [11] [µg/mL],MIC [12] [µg/mL],MIC [13] [µg/mL],MIC [14] [µg/mL],MIC [15] [µg/mL],MIC [16] [µg/mL],MIC [17] [µg/mL],MIC (Proteus vulgaris OX-19) [µg/mL],MIC [18] [µg/mL],other results
[C-]#[N+]C12CC3(/C=C/C(=O)Nc4ccc(OC)cc4)OC3C1O2 (stereo not shown) [compound 53],6.25,6.25,1.56,< 0.05,> 200,0.78,< 0.05,25,0.79,< 0.05,1.56,< 0.05,< 0.05,3.13,< 0.05,> 200,0.39,6.25,< 0.05,3.13,MIC [19]: < 0.05 µg/mL; MIC [20]: > 200 µg/mL; MIC (Salmonella typhi 901): 0.39 µg/mL; MIC (Enterobacter cloacae 963): 50 µg/mL; MIC [21]: < 0.05 µg/mL; MIC [22]: < 0.05 µg/mL; MIC [23]: 12.5 µg/mL; MIC [24]: > 200 µg/mL; MIC [25]: 0.39 µg/mL
[C-]#[N+]C12CC3(/C=C/C(=O)NCCO)OC3C1O2 (stereo not shown) [compound 68],100,200,25,25,> 200,200,12.5,100,100,6.25,100,6.25,200,200,3.13,> 200,6.25,200,12.5,25,MIC [19]: 6.25 µg/mL; MIC [20]: > 200 µg/mL; MIC (Salmonella typhi 901): 6.25 µg/mL; MIC (Enterobacter cloacae 963): > 200 µg/mL; MIC [21]: 25 µg/mL; MIC [22]: 6.25 µg/mL; MIC [23]: 25 µg/mL; MIC [24]: > 200 µg/mL; MIC [25]: 12.5 µg/mL
